Laboratory results from PubChem BioAssay AID248 (DTP/NCI, 2004).
Inconclusive results and toxic doses are left out. Cut-off read from the data, not from the text of the source: active = T/C of 150% or more; inactive = T/C below 125%.

System: L1210 leukemia ip in BDF1 mice, survival T/C
Assay: NCI In Vivo Anticancer Drug Screen. Data for tumor model L1210 Leukemia (intraperitoneal) in B6D2F1 (BDF1) mice
Conditions: endpoint: mean survival time, higher = longer survival
Procedure, shortened: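 Each compound was tested against a transplantable tumor grown in mice. The endpoint was survival, with treated animals benchmarked against vehicle controls as a simple ratio.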

[1] = dose: 100.0 mg/kg/injection, schedule: Q01DX001 (ip), vehicle: Klucel (hydroxypropylcellulose) (HPC)
[2] = dose: 100.0 mg/kg/injection, schedule: Q01DX009 (ip), vehicle: Klucel (hydroxypropylcellulose) (HPC)
[3] = dose: 100.0 mg/kg/injection, schedule: Q04DX003 (ip), vehicle: Klucel (hydroxypropylcellulose) (HPC)
[4] = dose: 200.0 mg/kg/injection, schedule: Q01DX001 (ip), vehicle: Klucel (hydroxypropylcellulose) (HPC)
[5] = dose: 200.0 mg/kg/injection, schedule: Q01DX009 (ip), vehicle: Klucel (hydroxypropylcellulose) (HPC)
[6] = dose: 200.0 mg/kg/injection, schedule: Q04DX003 (ip), vehicle: Klucel (hydroxypropylcellulose) (HPC)
[7] = dose: 400.0 mg/kg/injection, schedule: Q01DX001 (ip), vehicle: Klucel (hydroxypropylcellulose) (HPC)
[8] = dose: 400.0 mg/kg/injection, schedule: Q04DX003 (ip), vehicle: Klucel (hydroxypropylcellulose) (HPC)
[9] = dose: 100.0 mg/kg/injection, schedule: Q01DX009 (ip), vehicle: saline with Tween-80
[10] = dose: 200.0 mg/kg/injection, schedule: Q01DX009 (ip), vehicle: saline with Tween-80
[11] = dose: 400.0 mg/kg/injection, schedule: Q01DX009 (ip), vehicle: Klucel (hydroxypropylcellulose) (HPC)
[12] = dose: 100.0 mg/kg/injection, schedule: Q01DX001 (ip), vehicle: saline
[13] = dose: 200.0 mg/kg/injection, schedule: Q01DX001 (ip), vehicle: saline
[14] = dose: 400.0 mg/kg/injection, schedule: Q01DX001 (ip), vehicle: saline
[15] = dose: 12.5 mg/kg/injection, schedule: Q04DX003 (ip), vehicle: saline
[16] = dose: 25.0 mg/kg/injection, schedule: Q04DX003 (ip), vehicle: saline

Measured: T/C

CCOC(=O)c1ccc(N=NN(C)CC(C)C)cc1
inactive: [1] 107 % of control | [2] 112 % of control | [3] 105 % of control | [4] 104 % of control | [5] 122 % of control | [6] 107 % of control | [7] 107 % of control | [8] 108 % of control

O=C(COc1ccc(Cl)cc1)Nc1nccs1
inactive: [9] 96 % of control | [10] 89 % of control | dose: 400.0 mg/kg/injection, schedule: Q01DX009 (ip), vehicle: saline with Tween-80 92 % of control

CN(CCC(=O)c1ccccc1)C(C)(C)C
inactive: dose: 100.0 mg/kg/injection, schedule: Q04DX003 (ip), vehicle: saline 100 % of control

C=C(Nc1ccc2ccccc2c1)S(=O)(=O)O
inactive: [2] 94 % of control | [5] 103 % of control | [11] 96 % of control

CC(C)(C)N1CC(C(=O)c2ccc3ccccc3c2)C1c1ccccc1 (stereo not drawn)
inactive: dose: 100.0 mg/kg/injection, schedule: Q04DX003 (ip), vehicle: saline with Tween-80 93 % of control | dose: 200.0 mg/kg/injection, schedule: Q04DX003 (ip), vehicle: saline with Tween-80 98 % of control | dose: 400.0 mg/kg/injection, schedule: Q04DX003 (ip), vehicle: saline with Tween-80 88 % of control

Cc1nc2c(Cl)cc(Cl)cc2c2c1-c1ccccc1C2=O
inactive: dose: 100.0 mg/kg/injection, schedule: Q04DX003 (ip), vehicle: acetone 89 % of control | dose: 200.0 mg/kg/injection, schedule: Q04DX003 (ip), vehicle: acetone 89 % of control | dose: 400.0 mg/kg/injection, schedule: Q04DX003 (ip), vehicle: acetone 97 % of control

Oc1cccc(N=Cc2ccccc2O)c1
inactive: [1] 102 % of control | [12] 97 % of control | [4] 96 % of control | [13] 100 % of control | [7] 101 % of control | [14] 105 % of control

C=C(Br)C(C)(C)C
inactive: dose: 50.0 mg/kg/injection, schedule: Q01DX009 (ip), vehicle: saline 101 % of control | dose: 100.0 mg/kg/injection, schedule: Q01DX009 (ip), vehicle: saline 101 % of control | dose: 200.0 mg/kg/injection, schedule: Q01DX009 (ip), vehicle: saline 101 % of control

COc1ccc(/C=C2\N=C(c3ccc([N+](=O)[O-])cc3)OC2=O)cc1OC
inactive: [2] 91 % of control | [5] 93 % of control | [11] 101 % of control

CC(C)N1CCc2cc3c(cc2C1)OCO3
inactive: dose: 5.0 mg/kg/injection, schedule: Q01DX001 (ip), vehicle: saline 101 % of control | dose: 10.0 mg/kg/injection, schedule: Q01DX001 (ip), vehicle: saline 101 % of control | dose: 20.0 mg/kg/injection, schedule: Q01DX001 (ip), vehicle: saline 110 % of control | dose: 40.0 mg/kg/injection, schedule: Q01DX001 (ip), vehicle: saline 104 % of control | dose: 80.0 mg/kg/injection, schedule: Q01DX001 (ip), vehicle: saline 101 % of control

CCC(=O)OC1(c2ccccc2)CCN(CCCC(=O)c2ccccc2)CC1
inactive: dose: 20.0 mg/kg/injection, schedule: Q04DX003 (ip), vehicle: Klucel (hydroxypropylcellulose) (HPC) 111 % of control | dose: 40.0 mg/kg/injection, schedule: Q04DX003 (ip), vehicle: Klucel (hydroxypropylcellulose) (HPC) 96 % of control

CCCCCCCCc1ccc(O)c(Cl)c1
inactive: [9] 95 % of control | [10] 96 % of control

OC(CCl)CBr (stereo not drawn)
inactive: dose: 6.25 mg/kg/injection, schedule: Q01DX009 (ip), vehicle: saline 96 % of control | dose: 6.25 mg/kg/injection, schedule: Q04DX003 (ip), vehicle: saline 97 % of control | dose: 12.5 mg/kg/injection, schedule: Q01DX009 (ip), vehicle: saline 96 % of control | [15] 92 % of control | dose: 25.0 mg/kg/injection, schedule: Q01DX009 (ip), vehicle: saline 94 % of control | [16] 93 % of control

CSc1[nH]c2ncnc(N)c2c1C#N
inactive: dose: 100.0 mg/kg/injection, schedule: Q01DX001 (ip), vehicle: other 88 % of control | dose: 200.0 mg/kg/injection, schedule: Q01DX001 (ip), vehicle: other 101 % of control

COc1ccc2nc3cc(Cl)ccc3c(NCCCCN(C)C)c2c1
inactive: dose: 6.0 mg/kg/injection, schedule: Q04DX003 (ip), vehicle: saline 97 % of control | [15] 99 % of control

CC(=O)O[C@H]1CC[C@]2(C)[C@H]3CC[C@]4(C)[C@@H](OC(C)=O)CC[C@H]4[C@@H]3[C@@H](C)[C@]2(O)C1
inactive: dose: 50.0 mg/kg/injection, schedule: Q01DX001 (sc), vehicle: steriod suspending solution 102 % of control | dose: 100.0 mg/kg/injection, schedule: Q01DX001 (sc), vehicle: steriod suspending solution 100 % of control | dose: 200.0 mg/kg/injection, schedule: Q01DX001 (sc), vehicle: steriod suspending solution 102 % of control | dose: 400.0 mg/kg/injection, schedule: Q01DX001 (sc), vehicle: steriod suspending solution 105 % of control

C=C1C(=O)O[C@@H]2[C@H]1CC[C@H](C)[C@@H]1CCC(=O)[C@@]21C
inactive: [12] 102 % of control | [13] 100 % of control | [14] 98 % of control

O=c1nc(NC2OC(CO)C(O)C2O)ccn1C1OC(CO)C(O)C1O (stereo not drawn)
inactive: dose: 100.0 mg/kg/injection, schedule: Q01DX005 (ip), vehicle: saline 102 % of control | dose: 200.0 mg/kg/injection, schedule: Q01DX005 (ip), vehicle: saline 108 % of control

O=C1/C(=C/c2ccc(O)c(O)c2)CCc2ccccc21
inactive: dose: 30.0 mg/kg/injection, schedule: Q01DX015 (ip), vehicle: saline 97 % of control | dose: 60.0 mg/kg/injection, schedule: Q01DX015 (ip), vehicle: saline 94 % of control | dose: 120.0 mg/kg/injection, schedule: Q01DX015 (ip), vehicle: saline 94 % of control | dose: 240.0 mg/kg/injection, schedule: Q01DX015 (ip), vehicle: saline 100 % of control

NNC(=S)NCCc1ccccc1
inactive: dose: 25.0 mg/kg/injection, schedule: Q01DX009 (ip), vehicle: Klucel (hydroxypropylcellulose) (HPC) 101 % of control | dose: 50.0 mg/kg/injection, schedule: Q01DX009 (ip), vehicle: Klucel (hydroxypropylcellulose) (HPC) 105 % of control

Cc1cc[n+](Cc2ccccc2)cc1
inactive: [15] 96 % of control | [16] 90 % of control

O=c1oc(-c2ccco2)nc2ccccc12
inactive: [2] 101 % of control | [3] 102 % of control | [5] 110 % of control | [6] 95 % of control | [8] 93 % of control

COc1cc(O)c(OC(C)=O)cc1OC
inactive: dose: 100.0 mg/kg/injection, schedule: Q01DX001 (ip), vehicle: gum acacia 97 % of control | dose: 200.0 mg/kg/injection, schedule: Q01DX001 (ip), vehicle: gum acacia 97 % of control | dose: 400.0 mg/kg/injection, schedule: Q01DX001 (ip), vehicle: gum acacia 117 % of control

CCC12CCC(=O)NC1Cc1[nH]c3c(OC)cccc3c1C2 (stereo not drawn)
inactive: dose: 100.0 mg/kg/injection, schedule: Q01DX009 (ip), vehicle: saline sonified 93 % of control | dose: 200.0 mg/kg/injection, schedule: Q01DX009 (ip), vehicle: saline sonified 91 % of control | dose: 400.0 mg/kg/injection, schedule: Q01DX009 (ip), vehicle: saline sonified 91 % of control

CNC(=O)Nc1ccccc1C(=O)NN
inactive: dose: 100.0 mg/kg/injection, schedule: Q01DX009 (ip), vehicle: other 100 % of control | dose: 200.0 mg/kg/injection, schedule: Q01DX009 (ip), vehicle: other 96 % of control

Cc1ccc(-c2ccc(C)cc2[N+](=O)[O-])cc1
inactive: dose: 100.0 mg/kg/injection, schedule: Q01DX001 (ip), vehicle: carboxymethylcellulose (CMC) 91 % of control | dose: 200.0 mg/kg/injection, schedule: Q01DX001 (ip), vehicle: carboxymethylcellulose (CMC) 100 % of control | dose: 400.0 mg/kg/injection, schedule: Q01DX001 (ip), vehicle: carboxymethylcellulose (CMC) 102 % of control

CC1(C)NC(C(=O)O)CS1 (stereo not drawn)
inactive: [12] 101 % of control | [13] 90 % of control | [14] 95 % of control
